We go through eleven compounds from patent US20250122225A1, “MASP-2 INHIBITORS AND METHODS OF USE” (Omeros Corporation, priority 2023, published 2025).

Assay type in all cases: biochemical
In one test the target is T1, MASP-2 (CCP1-CCP2-SP) (Homo sapiens, UniProt O00187).
T1 construct: 15 μL of Enzyme MASP-2 (CCP1-CCP2-SP) in Assay Buffer
The test can be described thus: Enzymatic assay for MASP-2 inhibitory activity (fluorogenic substrate). The procedure, abridged: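 MASP-2 (CCP1-CCP2-SP) cleaved a fluorogenic substrate based on the C2 cleavage site in 20 mM HEPES pH 7.4, 140 mM NaCl, 0.1% Tween 20 at room temperature. After 20 min the reaction was stopped with 0.1 M acetic acid and fluorescence read. % activity was normalized to DMSO-only and no-enzyme controls; IC50 taken as Ki.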

Another test concerns the target T2, human α-thrombin (Homo sapiens, UniProt P00734).
T2 construct: enzyme (human α-thrombin (BioPharm® Lab.)) in assay buffer; purchased BioPharm® Lab
The test can be described thus: Enzymatic assay for thrombin (fluorogenic peptide substrate Boc-VPR-AMC). In short, it runs like this: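 Human α-thrombin was run with the fluorogenic substrate Boc-VPR-AMC in 20 mM Hepes pH 7.4, 140 mM NaCl, 0.1% Tween 20 at room temperature for 20 min, then stopped with 0.1 M acetic acid. % activity was normalized to DMSO and no-enzyme controls. Under linear conditions IC50 equalled Ki, except for tight-binding inhibitors.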

For test [1], the system named is Lectin Pathway Activation in human serum. The test can be described thus: Lectin Pathway Activation (LPA) assay in human serum, mannan-coated ELISA plate, C4c detection. The settings on record: 1% human serum, read-out: LPA Functional Activity (IC50). As to the method:
Lectin Pathway Activation (LPA) Assay in Human Serum Treated with Compounds
A microtiter ELISA plate was coated with mannan (1 mg/ml) from Saccharomyces cerevisiae (Sigma-Aldrich®, M7504) overnight at 4° C. in coating buffer [33.3 mM Na2CO3, 166.67 mM NaHCO3]. The plate was blocked with 5% bovine serum albumin (BSA) (Sigma-Aldrich®, A3294) in 1×PBST [Phosphate Buffered Saline Solution (1.06 mM KH2PO4, 155.2 mM NaCl, 2.97 mM Na2HPO4^−·7H2O, pH 7.4), 0.05% Tween-20] shaking for 2 hours at room temperature. 1% human serum was incubated with serial dilutions of small compounds in 1× LPA+ Buffer [20 mM Hepes, pH 7.4, 140 mM NaCl, 2 mM MgCl2 (6H2O)] and incubated for 5 minutes at room temperature. 40 μL of this mixture was then added to the plate, and the plate was incubated at room temperature for 55 mins. Next, the reaction was stopped by adding 20 μL of EDTA Stop Solution [20 mM Hepes, pH7.4, 140 mM NaCl, 150 mM EDTA] to the plate. The plate was then washed 10× in wash buffer 1×PBST; 40 μL of Rabbit Anti Human C4c Antibody [Dako®, Q0369] diluted 1:20000 in wash buffer was added; and the plate was incubated shaking at room temperature for 30 minutes. The plate was washed [5× times]; 40 μL of Goat Anti-rabbit Antibody-HRP Conjugate [Southern Biotech®, 4050-05] diluted 1:10000 in wash buffer was added; and the plate was incubated shaking at room temperature for 30 minutes. After that, the plate was washed five times; 40 µL/well of Amplex® UltraRed Substrate Solution [1× LPA Buffer, 10 mM Amplex® UltraRed Stock Solution [Thermo Fisher Sci.®, A36006], 3% stabilized hydrogen peroxide [Sigma Aldrich®, 216763] was added; the plate was incubated at room temperature for 16 minutes; the reaction was stopped by adding 8 µL/well of Amplex® UltraRed Stop Solution [Thermo Fisher Sci.®, A33855] in 100% EtOH. Finally, the plate was read for fluorescence at Ex: 550 nm, Em: 580 nm on the i3x Microplate Reader.

Counter-ions that a name gives are not always drawn. Where only a bound is given, the exact number is not on record here.

T1 sequence (O00187 445-686 limits assumed): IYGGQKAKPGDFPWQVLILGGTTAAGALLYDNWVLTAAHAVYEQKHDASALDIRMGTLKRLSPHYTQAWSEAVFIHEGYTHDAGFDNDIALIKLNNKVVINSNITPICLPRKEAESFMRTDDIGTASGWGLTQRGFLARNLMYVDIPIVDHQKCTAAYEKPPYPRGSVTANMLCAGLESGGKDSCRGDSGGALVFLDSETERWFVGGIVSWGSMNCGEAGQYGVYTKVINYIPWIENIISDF
T1 sequence (O00187 287-444 partner limits assumed): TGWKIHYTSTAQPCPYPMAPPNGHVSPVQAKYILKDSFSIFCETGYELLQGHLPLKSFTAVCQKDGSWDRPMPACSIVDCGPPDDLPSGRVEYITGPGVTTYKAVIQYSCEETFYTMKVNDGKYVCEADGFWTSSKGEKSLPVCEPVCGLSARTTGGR

Consider `Cc1cc(F)cc(CNc2ncc3n(c2=O)[C@H](C(=O)NCc2cnc(N)c(C)c2)CC3)c1` [Compound 213, (S)—N-((6-amino-5-methylpyridin-3-yl)methyl)-3-((3-fluoro-5-methylbenzyl)amino)-4-oxo-4,6,7,8-tetrahydropyrrolo[1,2-a]pyrazine-6-carboxamide trifluoroacetate], for which the Ki on MASP-2 (CCP1-CCP2-SP) and at human α-thrombin was below 500 nM throughout. The IC50 (commonly the concentration that gives 50% inhibition) in test [1] is 50 to 500 nM.

As for `Cc1nc(N)ccc1CNC(=O)[C@@H]1CCc2c(Cl)nc(NCc3cccc(-c4ccccc4)c3)c(=O)n21` [Compound 221, (S)-3-(([1,1′-biphenyl]-3-ylmethyl)amino)-N-((6-amino-2-methylpyridin-3-yl)methyl)-1-chloro-4-oxo-4,6,7,8-tetrahydropyrrolo[1,2-a]pyrazine-6-carboxamide trifluoroacetate], the figures for the Ki at MASP-2 (CCP1-CCP2-SP) and at human α-thrombin were below 500 nM and 2500 to 10000 nM, respectively. Moreover, the IC50 in test [1] was below 50 nM.

In the case of `[2H]C([2H])([2H])c1nc(N)ccc1CNC(=O)[C@@H]1CCc2cnc(NCc3cc(C)cc(OC)c3)c(=O)n21` [Compound 226, (S)—N-((6-amino-2-(methyl-d3)pyridin-3-yl)methyl)-3-((3-methoxy-5-methylbenzyl)amino)-4-oxo-4,6,7,8-tetrahydropyrrolo[1,2-a]pyrazine-6-carboxamide], the Ki on MASP-2 (CCP1-CCP2-SP) and on human α-thrombin was below 500 nM each time. In test [1], the IC50 was below 50 nM.

Turning to `CC1(C)C[C@@H](C(=O)NCc2cc3cnccc3[nH]2)n2c1cnc(NCc1ccccc1)c2=O` [Compound 228, trifluoroacetate], the Ki (as a rule, a measure of affinity in units of concentration, obtained from inhibition or displacement) on MASP-2 (CCP1-CCP2-SP) is below 500 nM; on human α-thrombin, 2500 to 10000 nM. In addition, the concentration for half-maximal inhibition (IC50) in test [1] was below 50 nM.

As for `C[C@@H]1C[C@@H](C(=O)NCc2cc3cnccc3[nH]2)n2c1c(Cl)nc(NCc1ccccc1)c2=O` [Compound 230, (6S,8R)-N-((1H-pyrrolo[3,2-c]pyridin-2-yl)methyl)-3-(benzylamino)-1-chloro-8-methyl-4-oxo-4,6,7,8-tetrahydropyrrolo[1,2-a]pyrazine-6-carboxamide trifluoroacetate], the Ki was below 500 nM on MASP-2 (CCP1-CCP2-SP) and 500 to 2500 nM on human α-thrombin. Also, in test [1], the IC50 lay in the range of 50 to 500 nM.

On to `O=C(NCc1cc2cnccc2[nH]1)[C@@H]1CCc2c(Cl)nc(NCc3cnccn3)c(=O)n21` [Compound 239], for which the Ki on MASP-2 (CCP1-CCP2-SP) is below 500 nM; on human α-thrombin, above 25000 nM. Besides, the IC50 in test [1] was 50 to 500 nM.

As for `Cc1nc(N)ccc1CNC(=O)[C@@H]1CCc2c(Cl)nc(NCCc3cccnc3)c(=O)n21` [Compound 240], the Ki on MASP-2 (CCP1-CCP2-SP) and on human α-thrombin was below 500 nM throughout. For the same compound, the IC50 in test [1] fell in the range of 50 to 500 nM.

Consider `O=C(NCc1cc2c(s1)CNC2)[C@@H]1CCc2cnc(N[C@H]3CCc4ccc(-c5ccccc5)cc43)c(=O)n21` [Compound 257], for which the Ki on MASP-2 (CCP1-CCP2-SP) and on human α-thrombin was below 500 nM in each case. Besides, the IC50 in test [1] was below 50 nM.

As for `O=C(NCc1cc2c(s1)CNC2)[C@@H]1CCc2cnc(N[C@@H](c3ccccc3)C3CC3)c(=O)n21` [Compound 259, (S)-3-(((R)-cyclopropyl(phenyl)methyl)amino)-N-((5,6-dihydro-4H-thieno[2,3-c]pyrrol-2-yl)methyl)-4-oxo-4,6,7,8-tetrahydropyrrolo[1,2-a]pyrazine-6-carboxamide trifluoroacetate], the Ki at MASP-2 (CCP1-CCP2-SP) and on human α-thrombin was below 500 nM throughout. Also, the IC50 in test [1] was below 50 nM.

As for `C[C@@H](CNc1ncc2n(c1=O)[C@H](C(=O)NCc1cc3c(s1)CNC3)CC2)c1ccccc1` [Compound 276, (S)-N-((5,6-dihydro-4H-thieno[2,3-c]pyrrol-2-yl)methyl)-4-oxo-3-(((R)-2-phenylpropyl)amino)-4,6,7,8-tetrahydropyrrolo[1,2-a]pyrazine-6-carboxamide trifluoroacetate], the Ki on MASP-2 (CCP1-CCP2-SP) and on human α-thrombin was below 500 nM each time. The IC50 in test [1] was below 50 nM.

As to `CC[C@@H](Nc1ncc2n(c1=O)[C@H](C(=O)N[C@H](C)c1cc3c(s1)CNC3)CC2)c1ccccc1` [Compound 277], the Ki at MASP-2 (CCP1-CCP2-SP) was below 500 nM; on human α-thrombin, 500 to 2500 nM. The IC50 in test [1] was in the range of 50 to 500 nM.
